Experimental data: patent US4690891A, “Method and the microorganism and enzyme used therein for degrading the xanthan molecule” (Exxon Research and Engineering Company, priority 1985, dated 1987)
Read-outs that look alike come from different tables or passages of the source.

Key:
[1] = system: xanthan depolymerase; assay: Substrate specificity of xanthan depolymerase; format: biochemical, Bacillus sp. (culture NRRL B-15992); conditions: forty μg of enzyme per assay
Experimental: (§1) A novel xanthan depolymerase was purified from the culture supernatant and examined for its effect on degrading xanthan. In the following, enzyme assays were conducted with either viscosity or reducing sugar measurements by incubating a 1.25 ml xanthan stock solution and a small amount of enzyme(s) at 25° C. Xanthan stock solution was prepared by dissolving 0.188% xanthan, 0.4 mM MgSO4, and 0.03 mM MnSO4 in 0.05 M sodium acetate buffer pH 5.4. At certain time intervals samples were taken for either viscosity or reducing sugar assay. Viscosity was measured at 25° C. (using a Contraves low-shear 30 rheometer, Middlesex, U.K. at a shear rate of 1.3 sec.^-1 1). The rheometer was equipped with a refrigerated circulating bath (Neslab Endoccal bath, Portsmouth, N.H.). Reducing sugars, calculated as glucose, were determined by the method of Somogyi, M., (1945), "A New Reagent for the Determination of Sugars", J. Biol. Chem. 160, 61-69. […] The changes in viscosity and reducing sugars between two time intervals (1.0 min to 2.0 min for Δ cps, 0.5 min to 1.5 min for Δ reducing sugars) were measured. Enzyme activity (in units) was expressed as Δ cps/min (depolymerase) or Δμmoles reducing sugar group released (as glucose) per min. (for both endo and exoglucanases). Specific enzyme activity was expressed as units per mg of protein.

[2] = system: xanthan depolymerase; assay: Inhibition of xanthan depolymerase activity, assayed viscosimetrically; format: biochemical, Bacillus sp. (culture NRRL B-15992)
Experimental: as §1
Various chemicals including thiols, metal ions and metal-chelating agents were tested for inhibition of xanthan depolymerase activity. These chemicals (at 1 mM concentration unless otherwise stated) were added into xanthan stock solutions. Enzyme activity was assayed viscosimetrically.

[3] = system: culture B-15992; assay: Effect of chemicals and biocide on growth of culture B-15992 in xanthan broth (viscosity loss); format: cell-based, Bacillus sp. / Flavobacterium sp. mixed culture NRRL B-15992
Experimental: Chemicals and biocides, including those used in enhanced oil recovery operations were studied for their effect on the growth of culture B-15992 and on the activity of xanthan-degrading enzyme(s). Both aerobic and anaerobic conditions were tested. In order to simulate the conditions used in EOR field operation, xanthan was produced in the laboratory by growing Xanthomonas campestris according to the published procedure, Jeanes, A., et al, (1976), "Polysaccharide (xanthan) of Xanthomonas campestris NRRL B-1459: Procedures for culture maintenance and polysaccharide production, purification and analysis". Agricultural Research Service, U.S. Department of Agriculture AR-NC-51. After centrifugation, the culture broth was autoclaved and was diluted with brine to about 300 cps viscosity. A cell suspension of culture B-15992 obtained from colonies grown on agar plates was used as the innoculum. Growth of B-15992 was followed by monitoring decreases of viscosity of the culture broth and by microscopic observation.

[4] = system: culture B-15992
Text: The stable mixed culture is hereinafter designated NRRL B-15992.

With `OC[C@H]1O[C@@H](O[C@H]2[C@H](O)[C@@H](O)C(O)O[C@@H]2CO)[C@H](O)[C@@H](O)[C@@H]1O` (single isomer, unassigned) [D(+) cellobiose] the “Enzyme Activity (μmoles reducing sugar/min)” value [1] was 0 μmoles reducing sugar/min.

With `c1cnc2c(c1)ccc1cccnc12` [1,10-phenanthroline] the “% Inhibition” value ([2]; inhibitor 1 mM) was 0%.

With `O=C(O)c1cc(SSc2ccc([N+](=O)[O-])c(C(=O)O)c2)ccc1[N+](=O)[O-]` [5,5'-dithio-bis-2-n-nitrobenzoic acid] the “% Inhibition” value ([2]; inhibitor 1 mM) was 0%.

For `Oc1cccc2cccnc12` [8-hydroxyquinoline], the “% Inhibition” value [2] was 0%.

`OC[C@H]1O[C@H](O[C@H]2O[C@H](CO)[C@@H](O)[C@H](O)[C@H]2O)[C@H](O)[C@@H](O)[C@@H]1O` [D(+) trehalose] was tested, and the “Enzyme Activity (μmoles reducing sugar/min)” value [1] was 0 μmoles reducing sugar/min.

In the case of `N#CC(Br)(Br)C(N)=O` [DBNPA, 2,2-dibromo-3-nitrilopropionamide], the “prevention of growth of B-15992” value ([3]; 10 ppm) is reported as “not effective in preventing the growth of B-15992”, the “time until solution viscosity was lost” value ([3]; 10 ppm, aerobic) is reported as no more than 5 days and the “Viscosity (cps after days incubation) Aerobic” value ([3]; 10 ppm, aerobic, 5 days) is reported as 1.5 cps. The “Viscosity (cps after days incubation) Anaerobic” value ([3]; 10 ppm) was 300 cps.

In the case of `[Na+].[O-]c1cc(Cl)c(Cl)cc1Cl` [Dowicide B, sodium trichlorophenate], the “inhibition of xanthan depolymerase activity” value ([2]; 100 ppm) is reported as “failed to inhibit”.

`O=C(O)CN(CCN(CC(=O)O)CC(=O)O)CC(=O)O` [EDTA] was tested, and the “% Inhibition” value [2] was 0%.

For `C=O` [HCHO, formaldehyde], the “inhibition of xanthan depolymerase activity” value [2] was “not inhibited”, the “time for B-15992 to degrade the xanthan solution” value ([3]; 25 ppm, aerobic) was 9 days and the “Viscosity (cps after days incubation) Aerobic” value ([3]; 25 ppm, aerobic, 9 days, about 300 cps at start) was 1.5 cps. The “Viscosity (cps after days incubation) Anaerobic” value ([3]; 25 ppm) was 300 cps, the “prevention of growth of B-15992” value ([3]; 25 ppm, compared with 10 ppm DBNPA) was “somewhat more effective” and the “Viscosity (cps after days incubation) Aerobic” value ([3]; 50 ppm, aerobic) was 300 cps. The “Viscosity (cps after days incubation) Anaerobic” value ([3]; 50 ppm) was 300 cps and the “changes in solution viscosity or cell growth” value ([3]; 50 ppm, during 30 days of incubation) was “no changes in solution viscosity or cell growth”.

In the case of `[Cl-].[K+]` [KCl], the “inhibition of xanthan depolymerase activity” value ([2]; 1 mM) is reported as “not inhibited”.

For `[K+].[OH-]` [KOH], the “inhibition of xanthan depolymerase activity” value ([2]; 5.0 mM (Trizma ph 8.5)) was “not inhibited”.

In the case of `N#CSCSC#N` [MBT 3522, methylene bisthiocyanate], the “inhibition of xanthan depolymerase activity” value ([2]; 100 ppm) is reported as “failed to inhibit”.

For `CCN1C(=O)C=CC1=O` [N--ethylmaleimide], the “% Inhibition” value ([2]; inhibitor 1 mM) was 40%.

With `O=S([O-])S(=O)[O-].[Na+].[Na+]` [Na2 S2 O4, sodium dithionite] the “inhibition of xanthan depolymerase activity” value ([2]; 0.2%) was “not inhibited”, the “inhibition of xanthan depolymerase activity” value ([2]; 100 ppm) was “not inhibited” and the “Viscosity (cps after days incubation) Aerobic” value ([3]; 75 ppm, aerobic, xanthan broth about 300 cps at start) was 1.0 cps. The “Viscosity (cps after days incubation) Anaerobic” value ([3]; 75 ppm, about 300 cps at start) was 300 cps.

`[Cl-].[Na+]` [NaCl] was tested, and the “inhibition of xanthan depolymerase activity” value [2] was “not inhibited”, the “growth of culture B-15992” value ([4]; 10% salt concentration) was “completely inhibited” and the “growth of culture B-15992” value ([4]; salt concentration between 6-8%) was “somewhat slower”. For the same molecule, the “growth of culture B-15992” value ([4]; up to 5% salt (NaCl) concentration) was “not inhibited”.

With `[Na+].[OH-]` [NaOH] the “inhibition of xanthan depolymerase activity” value ([2]; 5.0 mM (Trizma ph 8.5)) was “not inhibited”.

With `NC(CO)(CO)CO` [Trizma] the “inhibition of xanthan depolymerase activity” value [2] was “not inhibited”.

With `N.N.O=S(=O)(O)O` [ammonium sulfate] the “inhibition of xanthan depolymerase activity” value [2] was “not inhibited”.

`Clc1ccccc1` [chlorobenzene] was tested, and the “inhibition of xanthan depolymerase activity” value ([2]; 100 ppm) was “not inhibited”.

In the case of `ClC(Cl)Cl` [chloroform], the “inhibition of xanthan depolymerase activity” value [2] is reported as “not inhibited”.

With `O=C(O)CC(O)(CC(=O)O)C(=O)O` [citric acid] the “inhibition of xanthan depolymerase activity” value ([2]; 5.5 mM) was “not inhibited”.

`N#CC(Br)(Br)C(N)=O` [dow Antimicrobial 7287, 2,2-dibromo-3-nitrilopropionamide] was tested, and the “inhibition of xanthan depolymerase activity” value ([2]; 100 ppm) was “failed to inhibit”.

In the case of `[Cl][Fe]([Cl])[Cl]` [ferric chloride], the “% Inhibition” value [2] is reported as 100% and the “inhibition of xanthan depolymerase activity” value [2] is reported as “inhibited strongly”.

In the case of `c1c[nH]cn1` [imidazole], the “% Inhibition” value [2] is reported as 30%.

`NC(=O)CI` [iodoacetamide] was tested, and the “% Inhibition” value ([2]; inhibitor 1 mM) was 0%.

`O=C(O)CI` [iodoacetic acid] was tested, and the “% Inhibition” value [2] was 0%.

`O=C(O)c1cc[c]([Hg+])cc1.[OH-]` [p-hydroxymercuribenzoate] was tested, and the “% Inhibition” value ([2]; inhibitor 1 mM) was 40%.

In the case of `[N-]=[N+]=[N-]` [sodium azide], the “% Inhibition” value ([2]; inhibitor 1 mM) is reported as 0%.

For `OCl` [sodium hypochlorite], the “inhibition of xanthan depolymerase activity” value ([2]; 100 ppm) was “not inhibited”.

For `On1ccccc1=S` [sodium omadine], the “inhibition of xanthan depolymerase activity” value [2] was “failed to inhibit”.

With `NNC(N)=S` [thiosemicarbazide] the “% Inhibition” value ([2]; inhibitor 1 mM) was 20%.

In the case of `NC(N)=S` [thiourea], the “% Inhibition” value ([2]; inhibitor 1 mM) is reported as 20%.

`c1ccc(-c2ccccn2)nc1` [α, α' bipyridyl] was tested, and the “% Inhibition” value ([2]; inhibitor 1 mM) was 30%.

In the case of `O=C(CCl)c1ccc(O)c(O)c1` [α-chloro-3,4-dihydroxyacetophenone], the “inhibition of xanthan depolymerase activity” value ([2]; 100 ppm) is reported as “not inhibited”.

With Triton X-100 the “inhibition of xanthan depolymerase activity” value ([2]; 4%) was “not inhibited”, the “Viscosity (cps after days incubation) Aerobic” value ([3]; 500 ppm, aerobic) was 90 cps and the “Viscosity (cps after days incubation) Anaerobic” value ([3]; 500 ppm) was 300 cps.

For arsenomolybdate, the “inhibition of xanthan depolymerase activity” value ([2]; concentrations of Table VI) was “inhibited strongly” and the “% Inhibition” value ([2]; inhibitor 4%) was 100%.

With chlorophenol the “inhibition of xanthan depolymerase activity” value ([2]; 100 ppm) was “not inhibited”.

In the case of ferrous sulfate, the “inhibition of xanthan depolymerase activity” value ([2]; 5.5 mM) is reported as “not inhibited”.
